# From article PMC10657444, “Design and evaluation of tadpole-like conformational antimicrobial peptides” (Communications Biology, 2023)
# Several values for one entry are separate records, joined by “and”; a condition that tells them apart may be missing. Identical values can stand only once. Like-named read-outs stand apart in the source and are kept apart here. Residues, ends and D or L forms follow the SMILES beside them.
# Experiments:
# [1] = system: Gram-negative bacterial strains; assay type: cell-based
# From the text: (§1) Bacteria were cultivated in Luria-Bertani (LB) broth.
# [2] = system: K. pneumoniae ATCC 700603; assay type: cell-based, Klebsiella pneumoniae
# From the text: as §1
# [3] = system: K. pneumoniae 3026; assay type: cell-based, Klebsiella pneumoniae
# From the text: as §1
# [4] = system: MRSA USA 300; assay type: cell-based, Staphylococcus aureus
# From the text: as §1
# [5] = system: MRSA; assay type: cell-based, Staphylococcus aureus
# From the text: as §1
# [6] = system: MRSA 3393; assay type: cell-based, Staphylococcus aureus; conditions: 3393
# From the text: as §1
# [7] = system: MRSA ATCC 43300; assay type: cell-based, Staphylococcus aureus; conditions: ATCC 43300
# From the text: as §1
# [8] = system: E. coli ATCC 25922; assay type: cell-based, Escherichia coli
# From the text: as §1
# [9] = system: E. coli S; assay type: cell-based, Escherichia coli
# From the text: as §1
# [10] = MTT cytotoxicity assay; assay type: cell-based, human; conditions: human; for viability at 72 h, 0.78 µM / viability at 72 h, 12.5 µM / viability at 72 h, 0.39 µM / viability at 72 h, 1.57 µM / viability at 72 h, 3.13 µM / viability at 72 h, 6.25 µM / viability at 72 h, 25 µM / viability at 72 h, 50 µM / viability at 72 h, 100 µM: HEK293T cells
# Method: (§2) To determine the cytotoxicity of the peptides, we used the MTT (3-(4,5)-dimethylthiahiazo (-z-y1)-3,5-di-phenytetrazoliumromide) dye reduction assay against HEK293T cells. In brief, the 100 μL of cells in 96-well plate were incubated for 24 h at 37 °C, 5% CO2, and then peptide solutions (concentrations ranging from 100 to 0.39 μM) were added and further incubated for 72 h. MTT solution (5 mg/mL) was added and further incubated for 4 h. After incubation, the precipitated MTT formazan crystal was dissolved by addition of dimethyl sulfoxide (DMSO). […]
# [11] = system: A. baumannii 1337; assay type: cell-based, Acinetobacter baumannii
# From the text: as §1
# [12] = system: A. baumannii 1318; assay type: cell-based, Acinetobacter baumannii
# From the text: as §1
# [13] = system: sheep red blood cells; test: Hemolysis assay
# Method: To evaluate the hemolysis effects of peptides, red blood hemolysis was performed as described with minimum modifications. Sterile defibrated sheep blood was purchased from Guangzhou Hongquan Biotechnology Co., LTD. Blood cells were adjusted to 2 × 10^9 cells/mL in phosphate-buffered saline (PBS, pH 7.4). In total, 98 μL sheep red blood cell suspension was incubated with 2 μL of peptides at different concentrations ranging from 3.13 to 100 µM. After incubation for 1 h at 37 °C, the cells were centrifuged and the absorbance of the supernatant was measured at 450 nm. The value for “zero hemolysis” was determined using sterile PBS, while 100% hemolysis was established using 1.5% (v/v) Triton X-100. Hemolysis of testing sample was calculated as the percentage of Triton X-100-induced hemolysis.
# [14] = system: all tested bacterial strains; conditions: range over all strains
# From the text: The bacterial strains used in this study included the Gram-positive bacteria methicillin resistant Staphylococcus aureus (MRSA) (MRSA ATCC 43300 and 2 clinically isolated strains presented as MRSA USA 300 and MRSA 3393), Gram-negative bacteria Escherichia coli (E. coli ATCC 25922, and 1 clinically isolated strain presented as E. coli S), Klebsiella pneumoniae (K. pneumoniae ATCC 700603, and 1 clinically isolated strain presented as K. pneumoniae 3026), and Acinetobacter baumannii (2 clinically isolated strains presented as A. baumannii 1318 and A. baumannii 1337). Bacteria were cultivated in Luria-Bertani (LB) broth.
# The Clinical and Laboratory Standards Institute (CLSI)-defined broth microdilution testing method (M07, 11th edition, 2018) was used to determine MICs for peptides. Briefly, the concentrations of the peptides and ciprofloxacin in the assay wells ranged from 100 μM to 0.01 μM as a 11-point dose response plated as a 2-fold dilution series across the wells of the plate in duplicate for each independent biological replicate. Bacterial susceptibility assays were performed in Cation-Adjusted Mueller Hinton Broth (CAMHB), and using a final cell density of 5 × 10^6 CFU/mL for bacteria[36]. Final assay volumes were 100 μL per well with MICs determined by measuring absorbance at 595 nm with a microplate reader following 18–20 h incubation at 37 °C. […]
# [15] = system: HEK293T cells; test: MTT cytotoxicity assay; assay type: cell-based, human; conditions: for percent cell viability: HEK293T
# Method: as §2
# [16] = HEK293T, 0.78 µM, read-out: OD450, cytotoxicity (Fig 2a), replicates
# [17] = HEK293T, 12.5 µM, read-out: OD450, cytotoxicity (Fig 2a), replicates
# [18] = OD450, cytotoxicity (Fig 2a), replicates
structure (smiles),measurement,setting,value
CC[C@H](C)[C@H](NC(=O)[C@H](CCCNC(=N)N)NC(=O)[C@H](CCCNC(=N)N)NC(=O)[C@H](CC(C)C)NC(=O)[C@H](Cc1ccccc1)NC(=O)[C@H](CCCNC(=N)N)NC(=O)[C@@H](N)CCCNC(=N)N)C(=O)N[C@@H](Cc1ccccc1)C(=O)N[C@@H](Cc1ccccc1)C(=O)N[C@@H](Cc1ccccc1)C(=O)N[C@@H](Cc1ccccc1)C(N)=O [HT3] (H-RRFLRRIFFFF-NH2; N-terminus assumed),"MICs against Gram-negative bacterial strains, such as A. baumannii and Klebsiella pneumoniae",[1],6.25 µM
same,MIC Gram- K. p ATCC 700603,[2],6.25 µM
same,MIC Gram- K. p 3026,[3],6.25 µM
same,MIC Gram+ MRSA USA 300,[4],3.13 µM
same,MICs against Gram-positive bacterial strains,[5],1.57 to 3.13 µM
same,MIC Gram+ MRSA 3393,[6],3.13 µM
same,MIC Gram+ MRSA ATCC 43300,[7],1.57 µM
same,MIC Gram- E. coli ATCC 25922,[8],6.25 µM
same,MIC Gram- E. coli S,[9],25 µM
same,IC50 at 72 h,[10],49 µM
same,"viability at 72 h, 0.78 µM",[10]; [16],95.8%
same,"viability at 72 h, 12.5 µM",[10]; [17],94.4%
same,"viability at 72 h, 0.39 µM",[10]; [18],94%
same,"viability at 72 h, 0.78 µM",[10]; [18],98.7%
same,"viability at 72 h, 1.57 µM",[10]; [18],96.4%
same,"viability at 72 h, 3.13 µM",[10]; [18],97.8%
same,"viability at 72 h, 6.25 µM",[10]; [18],94.9%
same,"viability at 72 h, 12.5 µM",[10]; [18],99.5%
same,"viability at 72 h, 25 µM",[10]; [18],91.4%
same,"viability at 72 h, 50 µM",[10]; [18],59.2%
same,"viability at 72 h, 100 µM",[10]; [18],24.2%
same,MIC Gram- A. b 1337,[11],6.25 µM
same,MIC Gram- A. b 1318,[12],6.25 µM
same,HC10 (concentration inducing 10% hemolysis),"[13]; red cells of sheep, 1 h",> 100.0 µM
CC[C@H](C)[C@H](NC(=O)[C@H](CCCNC(=N)N)NC(=O)[C@H](CCCNC(=N)N)NC(=O)[C@H](CC(C)C)NC(=O)[C@H](Cc1ccccc1)NC(=O)[C@@H](N)CCCNC(=N)N)C(=O)N[C@@H](Cc1ccccc1)C(=O)N[C@@H](CCCNC(=N)N)C(=O)N[C@@H](Cc1ccccc1)C(=O)N[C@@H](Cc1ccccc1)C(=O)N[C@@H](Cc1ccccc1)C(N)=O [HT4] (H-RFLRRIFRFFF-NH2),MIC Gram- K. p ATCC 700603,[2],3.13 µM
same,MIC Gram- K. p 3026,[3],12.5 µM
same,MIC Gram+ MRSA USA 300,[4],3.13 µM
same,MIC Gram+ MRSA 3393,[6],3.13 µM
same,MIC Gram+ MRSA ATCC 43300,[7],3.13 µM
same,MIC Gram- E. coli ATCC 25922,[8],6.25 µM
same,MIC Gram- E. coli S,[9],12.5 µM
same,MICs against all tested bacterial strains,[14],3.13 to 12.5 µM
same,toxicity / cytotoxicity against HEK293T cells (in words),[15],high toxicity
same,IC50 at 72 h,[10],2.6 µM
same,"viability at 72 h, 0.39 µM",[10]; [18],85.8%
same,"viability at 72 h, 0.78 µM",[10]; [18],80%
same,"viability at 72 h, 1.57 µM",[10]; [18],70.9%
same,"viability at 72 h, 3.13 µM",[10]; [18],34.7%
same,"viability at 72 h, 6.25 µM",[10]; [18],22.3%
same,"viability at 72 h, 12.5 µM",[10]; [18],13.4%
same,"viability at 72 h, 25 µM",[10]; [18],5.83%
same,MIC Gram- A. b 1337,[11],3.13 µM
same,MIC Gram- A. b 1318,[12],3.13 µM
same,HC10 (concentration inducing 10% hemolysis),"[13]; red cells of sheep, 1 h",12.5 µM
CC[C@H](C)[C@H](NC(=O)[C@H](CCCNC(=N)N)NC(=O)[C@H](CCCNC(=N)N)NC(=O)[C@H](CC(C)C)NC(=O)[C@H](Cc1ccccc1)NC(=O)[C@@H](N)CCCNC(=N)N)C(=O)N[C@@H](Cc1ccccc1)C(=O)N[C@@H](CCCCN)C(=O)N[C@@H](Cc1ccccc1)C(=O)N[C@@H](Cc1ccccc1)C(=O)N[C@@H](Cc1ccccc1)C(N)=O [HT5] (H-RFLRRIFKFFF-NH2),MIC Gram- K. p ATCC 700603,[2],12.5 µM
same,MIC Gram- K. p 3026,[3],12.5 µM
same,MIC Gram+ MRSA USA 300,[4],3.13 µM
same,MIC Gram+ MRSA 3393,[6],3.13 µM
same,MIC Gram+ MRSA ATCC 43300,[7],3.13 µM
same,MIC Gram- E. coli ATCC 25922,[8],6.25 µM
same,MIC Gram- E. coli S,[9],6.25 µM
same,MICs against all tested bacterial strains,[14],3.13 to 12.5 µM
same,toxicity / cytotoxicity against HEK293T cells (in words),[15],high toxicity
same,IC50 at 72 h,[10],2.3 µM
same,"viability at 72 h, 0.39 µM",[10]; [18],85.5%
same,"viability at 72 h, 0.78 µM",[10]; [18],79.4%
same,"viability at 72 h, 1.57 µM",[10]; [18],62.7%
same,"viability at 72 h, 3.13 µM",[10]; [18],21%
same,"viability at 72 h, 6.25 µM",[10]; [18],22.6%
same,"viability at 72 h, 12.5 µM",[10]; [18],8.57%
same,"viability at 72 h, 25 µM",[10]; [18],10.4%
same,MIC Gram- A. b 1337,[11],3.13 µM
same,MIC Gram- A. b 1318,[12],3.13 µM
same,HC10 (concentration inducing 10% hemolysis),"[13]; red cells of sheep, 1 h",12.5 µM
CC[C@H](C)[C@H](NC(=O)[C@H](CCCNC(=N)N)NC(=O)[C@H](CO)NC(=O)[C@H](CC(C)C)NC(=O)[C@H](Cc1ccccc1)NC(=O)[C@H](Cc1ccccc1)NC(=O)[C@@H](N)Cc1ccccc1)C(=O)N[C@@H](Cc1ccccc1)C(N)=O [SHf] (H-FFFLSRIF-NH2; N-terminus assumed),MICs against the tested Gram-negative bacterial strains,[1]; range over the strains,> 100 µM
same,MICs against MRSA,[5]; range over the MRSA strains,50 to 100 µM
same,percent cell viability,[15]; 0.39 µM,94.1313 and 97.2791
same,percent cell viability,[15]; 0.78 µM,95.9839 and 98.206
same,percent cell viability,[15]; 1.57 µM,94.1313 and 96.7238
same,percent cell viability,[15]; 3.13 µM,98.2056
same,percent cell viability,[15]; 6.25 µM,98.9467 and 92.2795
same,percent cell viability,[15]; 12.5 µM,99.6874 and 99.3163
same,percent cell viability,[15]; 25 µM,98.9463 and 99.3171
same,percent cell viability,[15]; 50 µM,91.54 and 92.6507
same,percent cell viability,[15]; 100 µM,21.5425 and 18.5796
same,"viability at 72 h, 0.39 µM","[10]; HEK293T, 0.39 µM, read-out: OD450, cytotoxicity (Fig 2a), replicates",99%
same,"viability at 72 h, 0.78 µM",[10]; [16],90.4%
same,"viability at 72 h, 1.57 µM","[10]; HEK293T, 1.57 µM, read-out: OD450, cytotoxicity (Fig 2a), replicates",97.8%
same,"viability at 72 h, 3.13 µM","[10]; HEK293T, 3.13 µM, read-out: OD450, cytotoxicity (Fig 2a), replicates",100%
same,"viability at 72 h, 6.25 µM","[10]; HEK293T, 6.25 µM, read-out: OD450, cytotoxicity (Fig 2a), replicates",92.7%
same,"viability at 72 h, 12.5 µM",[10]; [17],93.4%
same,"viability at 72 h, 25 µM","[10]; HEK293T, 25 µM, read-out: OD450, cytotoxicity (Fig 2a), replicates",94.9%
same,"viability at 72 h, 50 µM","[10]; HEK293T, 50 µM, read-out: OD450, cytotoxicity (Fig 2a), replicates",92.3%
same,"viability at 72 h, 100 µM","[10]; HEK293T, 100 µM, read-out: OD450, cytotoxicity (Fig 2a), replicates",27.1%
same,IC50 at 72 h,"[10]; HEK293T, MTT, 72 h, read-out: IC50, mammalian cell cytotoxicity",59 µM
same,"OD450, hemolysis (Fig 2b), replicates",[13]; 3.13 µM,0.01725 and 0.01686 and 0.01568 and 0.01738 and 0.01699 and 0.0158
same,"OD450, hemolysis (Fig 2b), replicates",[13]; 6.25 µM,0.01882 and 0.01529 and 0.01725 and 0.01896 and 0.01541 and 0.01738
same,"OD450, hemolysis (Fig 2b), replicates",[13]; 12.5 µM,0.01725 and 0.01803 and 0.01764 and 0.01738 and 0.01817 and 0.01777
same,"OD450, hemolysis (Fig 2b), replicates",[13]; 25 µM,0.01921 (2×) and 0.01764 and 0.01936 (2×) and 0.01777
same,"OD450, hemolysis (Fig 2b), replicates",[13]; 50 µM,0.02038 and 0.02156 and 0.01921 and 0.02054 and 0.02173 and 0.01936
same,"OD450, hemolysis (Fig 2b), replicates",[13]; 100 µM,0.01999 and 0.02234 and 0.02195 and 0.02014 and 0.02252 and 0.02212
same,hemolytic activity (in words),"[13]; sheep red blood cells, 3.13–100 μM",did not present hemolytic activity
same,HC10 (concentration inducing 10% hemolysis),"[13]; sheep red blood cells, 1 h at 37 °C",> 100.0 µM
